Here are results for three compounds from article PMC8400635, “A Bidirectional Permeability Assay for beyond Rule of 5 Compounds” (Pharmaceutics, 2021).

The nature of series [1]: Standard bidirectional permeability assay, Caco-2 cells. Format: in vitro ADME. As to conditions: human; for Papp A→B at 10 µM: read-out: Caco-2 Papp,AB; for Papp B→A at 10 µM: read-out: Caco-2 PappBA. (In general: Passage across Caco-2 layers is used to estimate intestinal permeability.)
The test system of another series is P-gp (MDR1). Description: Standard bidirectional permeability assay, MDCK-MDR1 cells. It counts as in vitro ADME, canine. Conditions: dog, MDCK-MDR1, pH 7.4, 10 µM in donor; for Papp A→B at 10 µM: read-out: MDCK-MDR1 Papp,AB.
Assay in series [2]: as above
It counts as in vitro ADME, canine. Conditions: dog, MDCK-MDR1, pH 7.4, 10 µM in donor, read-out: MDCK-MDR1 PappBA.

A further series has as its system P-gp. The series can be described thus: Modified bidirectional permeability assay (24 h preincubation), Caco-2 cells. Conditions: human, Caco-2, pH 7.4, with zosuquidar 5 µM.
Assay in series [3]: as above
As to conditions: human, Caco-2, pH 7.4.

The next series deals with Caco-2 cells. Described as above. As to conditions: Caco-2, modified assay; 5 µM zosuquidar.
Setting [4] is: Caco-2, pH 7.4, standard assay, 10 µM in donor.
The mark [5] stands for this setting: pH 7.4, Caco-2, standard conditions.

By efflux ratio is commonly meant the permeability from basolateral to apical divided by that in the opposite direction, in the common usage. With `COCCc1ccc(OCC(O)CNC(C)C)cc1` (stereo not drawn) [Metoprolol], in series [1] (setting [4]), the Papp A→B at 10 µM was 54.3 ×10⁻⁶ cm/s and the Papp B→A at 10 µM worked out at 41 ×10⁻⁶ cm/s. Further, in the series with P-gp (MDR1), the efflux ratio at 10 µM was determined as 1 and the Papp A→B at 10 µM was 67.7 ×10⁻⁶ cm/s. Besides, the Papp B→A at 10 µM in series [2] came out at 68.5 ×10⁻⁶ cm/s.
`Cc1nnc2n1-c1sc(CCC(=O)N3CCOCC3)cc1C(c1ccccc1Cl)=NC2` [Apafant, apafant]: the Papp A→B at 1 µM in the series with P-gp was determined as 13 ×10⁻⁶ cm/s. Further, in series [3], the Papp A→B at 1 µM was found to be 2.6 ×10⁻⁶ cm/s and the efflux ratio at 1 µM amounted to 13.8. The “inhibition of efflux by zosuquidar (P-gp substrate)” value with Caco-2 cells is on record as “inhibited completely”. Moreover, the Papp in series [1] (pH 7.4, Caco-2, standard assay, read-out: intrinsic permeability) was 14 ×10⁻⁶ cm/s. Besides, in series [1] (setting [5]), the Papp A→B stood at 2.3 ×10⁻⁶ cm/s and the efflux ratio worked out at 15.9.
`CC(C)NCC(O)COc1cccc2ccccc12` (stereo not drawn) [Propranolol]: in series [1] (setting [4]), the efflux ratio at 10 µM was found to be 1.1, the Papp A→B at 10 µM came to 79 ×10⁻⁶ cm/s and the Papp B→A at 10 µM is 69.5 ×10⁻⁶ cm/s. Further, in the series on P-gp (MDR1), the efflux ratio at 10 µM was 0.8 and the Papp A→B at 10 µM was found to be 38.4 ×10⁻⁶ cm/s. Moreover, the Papp B→A at 10 µM in series [2] came to 32.6 ×10⁻⁶ cm/s.
